≈ marks a conversion by molar mass, not a printed value. Read-outs that look alike come from different tables or passages of the source.
Assays:
Type in all cases: cell-based
S. pneumoniae ATCC 49619 = assay: MIC against S. pneumoniae ATCC 49619; conditions: Streptococcus pneumoniae, ATCC49619, S. pneumoniae ATCC 49619; read-out: MIC
S. pyogenes ATCC 19615 = assay: MIC against S. pyogenes ATCC 19615; conditions: Streptococcus pyogenes, ATCC19615, S. pyogenes ATCC 19615; read-out: MIC
[1] = tested on: E. coli MP-74 LptD mutant; assay: MIC against E. coli MP-74 LptD mutant; conditions: Escherichia coli
S. aureus ATCC 29213 = assay: MIC against S. aureus ATCC 29213; conditions: Staphylococcus aureus, ATCC29213, S. aureus ATCC 29213; read-out: MIC
K. pneumoniae ATCC 10031 = assay: MIC against K. pneumoniae ATCC 10031; conditions: Klebsiella pneumoniae, ATCC10031, read-out: MIC
C. difficile BAA 1805 = assay: MIC against C. difficile BAA 1805; conditions: Clostridioides difficile, BAA1805
S. aureus BAA 977 iErmA = assay: MIC against S. aureus BAA 977 iErmA; conditions: Staphylococcus aureus, BAA977
E. coli ATCC 25922 = assay: MIC against E. coli ATCC 25922; conditions: Escherichia coli, ATCC25922, read-out: MIC
E. faecalis ATCC 29212 = assay: MIC against E. faecalis ATCC 29212; conditions: Enterococcus faecalis, ATCC29212, E. faecalis ATCC 29212; read-out: MIC
[2] = tested on: S. aureus MP-549 msr(a) USA 300; assay: MIC against S. aureus MP-549 msr(a) USA 300; conditions: Staphylococcus aureus, USA300, S. aureus MP-549 msr(a) USA 300
E. coli MP-9 ΔTolC = assay: MIC against E. coli MP-9 ΔTolC; conditions: Escherichia coli
B. fragilis ATCC 25285 = assay: MIC against B. fragilis ATCC 25285; conditions: Bacteroides fragilis, ATCC25285
H. influenzae ATCC 49247 = assay: MIC against H. influenzae ATCC 49247; conditions: Haemophilus influenzae, ATCC49247, H. influenzae ATCC 49247; read-out: MIC
[3] = tested on: E. faecalis MMX 847 MacRes; assay: MIC against E. faecalis MMX 847 MacRes; conditions: Enterococcus faecalis, MMX847MACRES
S. aureus MMX 3035 cErmA = assay: MIC against S. aureus MMX 3035 cErmA; conditions: Staphylococcus aureus, MMX3035CERMA
[4] = tested on: S. pneumoniae MMX 3028 cErmB; assay: MIC against S. pneumoniae MMX 3028 cErmB; conditions: Streptococcus pneumoniae, MMX3028CERMB
[5] = tested on: S. pneumoniae MMX 3031 cMefA; assay: MIC against S. pneumoniae MMX 3031 cMefA; conditions: Streptococcus pneumoniae, MMX3031CMEFA
[6] = tested on: S. pyogenes MMX 946 Macrolide-Resistant; assay: MIC against S. pyogenes MMX 946 Macrolide-Resistant; conditions: Streptococcus pyogenes
[7] = S. pneumoniae MMX 3028 cErmB, read-out: MIC
[8] = S. pyogenes MMX 946 Macrolide-Resistant (MacRes), read-out: MIC

| SMILES | MIC (S. pneumoniae ATCC 49619) [µg/mL] | MIC (S. pyogenes ATCC 19615) [µg/mL] | MIC [1] [µg/mL] | MIC (S. aureus ATCC 29213) [µg/mL] | MIC (K. pneumoniae ATCC 10031) [µg/mL] | MIC (C. difficile BAA 1805) [µg/mL] | MIC (S. aureus BAA 977 iErmA) [µg/mL] | MIC (E. coli ATCC 25922) [µg/mL] | MIC (E. faecalis ATCC 29212) [µg/mL] | MIC [2] [µg/mL] | MIC (E. coli MP-9 ΔTolC) [µg/mL] | MIC (B. fragilis ATCC 25285) [µg/mL] | MIC (H. influenzae ATCC 49247) [µg/mL] | MIC [3] [µg/mL] | MIC (S. aureus MMX 3035 cErmA) [µg/mL] | MIC [4, 7] [µg/mL] | MIC [5] [µg/mL] | MIC [6, 8] [µg/mL] | MIC [4] [µg/mL] | MIC [6] [µg/mL] |
| --- | --- | --- | --- | --- | --- | --- | --- | --- | --- | --- | --- | --- | --- | --- | --- | --- | --- | --- | --- | --- |
| CCC[C@@H]1C[C@@H](C(=O)N[C@H]([C@H](C)NC)[C@H]2OC(SC)[C@H](O)C(O)C2O)N(C)C1 (stereo partly drawn) [FSA-215082] | 16 (≈ 38.1 µM) | 32 (≈ 76.3 µM) | > 64 | 64 (≈ 153 µM) | > 64 | > 64 | 64 (≈ 153 µM) | > 64 | > 64 | > 64 | > 64 | > 64 | > 64 | – | – | – | – | – | – | – |
| CCC[C@@H]1C[C@@H](C(=O)N[C@H](CN=[N+]=[N-])[C@H]2OC(SC)[C@H](O)C(O)C2O)N(C)C1 (stereo partly drawn) [FSA-215003] | 4 (≈ 9.58 µM) | 2 (≈ 4.79 µM) | – | 8 (≈ 19.2 µM) | – | – | – | > 64 | 32 (≈ 76.6 µM) | 0.125 (≈ 0.299 µM) | 4 (≈ 9.58 µM) | – | – | > 64 | > 64 | > 64 | 0.125 (≈ 0.299 µM) | > 64 | – | – |
| CCC[C@@H]1C[C@@H](C(=O)N[C@H](CNc2ccc(-c3cccnc3)cc2)[C@H]2OC(SC)[C@H](O)C(O)C2O)N(C)C1 (stereo partly drawn) [FSA-214087] | 8 (≈ 14.7 µM) | 8 (≈ 14.7 µM) | – | 32 (≈ 58.7 µM) | – | – | – | > 64 | > 64 | 32 (≈ 58.7 µM) | > 64 | – | – | > 64 | > 64 | > 64 | 32 (≈ 58.7 µM) | > 64 | – | – |
| CCC[C@@H]1C[C@@H](C(=O)N[C@@H]([C@H]2O[C@H](SC)[C@H](O)[C@@H](O)[C@H]2O)[C@H](C)Cl)N(C)C1 [Clindamycin, clindamycin, reference compound] | 0.12 (≈ 0.282 µM) | 0.06 (≈ 0.141 µM) | 2 (≈ 4.71 µM) | – | 8 (≈ 18.8 µM) | 8 (≈ 18.8 µM) | – | – | 16 (≈ 37.6 µM) | 0.125 (≈ 0.294 µM) | 8 (≈ 18.8 µM) | 0.5 (≈ 1.18 µM) | 16 (≈ 37.6 µM) | – | – | – | 0.06 (≈ 0.141 µM) | – | > 64 | > 64 |
| CCC[C@@H]1C[C@@H](C(=O)N[C@H]([C@H](C)NC(=O)CNC)[C@H]2OC(SC)[C@H](O)C(O)C2O)N(C)C1 (stereo partly drawn) [FSA-215078a] | 16 (≈ 33.6 µM) | 8 (≈ 16.8 µM) | > 64 | > 64 | > 64 | > 64 | > 64 | > 64 | > 64 | > 64 | > 64 | > 64 | > 64 | – | – | – | – | – | – | – |
| CCC[C@@H]1C[C@@H](C(=O)N[C@H]([C@H](C)NC(=O)CN)[C@H]2OC(SC)[C@H](O)C(O)C2O)N(C)C1 (stereo partly drawn) [FSA-215071] | 8 (≈ 17.3 µM) | 16 (≈ 34.6 µM) | > 64 | > 64 | > 64 | > 64 | > 64 | > 64 | > 64 | > 64 | > 64 | – | > 64 | – | – | – | – | – | – | – |
